Source: PubChem BioAssay (NCI)
Several values for one entry are separate records, joined by “and”; a condition that tells them apart may be missing. Identical values can stand only once.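 Tested at 5 concentrations; 48 h exposure; 96-well plates; endpoints linearly interpolated, else capped at highest concentration. GI50 is the concentration that inhibits growth by half. The concentration for full growth arrest is given as TGI.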

Legend:
Assay in all cases: NCI-60 cell line screen, 48 h
[1] = tested on: CAKI-1 renal
[2] = tested on: HOP-92 NSCLC
[3] = tested on: OVCAR-3 ovarian
[4] = tested on: UACC-62 melanoma
[5] = tested on: BT-549 breast
[6] = tested on: NCI/ADR-RES ovarian
[7] = tested on: PC-3 prostate
[8] = tested on: UACC-257 melanoma
[9] = tested on: SNB-75 CNS
[10] = tested on: T-47D breast

SMILES	TGI [1]	TGI [2]	TGI [3]	TGI [4]	TGI [5]	TGI [6]	TGI [7]	TGI [8]	GI50 [5]	GI50 [1]	GI50 [2]	GI50 [7]	GI50 [9]	TGI [9]	GI50 [10]	TGI [10]	GI50 [8]	GI50 [4]	GI50 [6]	GI50 [3]
C1=Nc2ccccc2Cn2nncc21	> 100 µM	> 100 µM	> 100 µM	55.3 µM																
CC(C)(C)CNCCCNc1ccc(Cl)cc1		79.4 µM		33.4 µM	> 100 µM	> 100 µM	> 100 µM	58.1 µM												
Clc1ccc(C2CC(c3cccc(Nc4ccncc4)c3)=NN2c2ccccc2)cc1 (stereo not drawn)	2.84 µM	2.82 µM		3.13 µM	3.38 µM		3.12 µM	3.83 µM	1.72 µM	1.5 µM	1.4 µM	1.6 µM	1.37 µM	2.79 µM	2.1 µM	4.86 µM	1.8 µM	1.71 µM		
CC(C)=CC1C(COC(=O)c2ccccc2Cl)C1(C)C (stereo not drawn)	> 100 µM	86.3 µM	75.8 µM	> 100 µM	95.1 µM	> 100 µM	> 100 µM	> 100 µM								> 100 µM				
O=[N+]([O-])c1ccc(NNN=Nc2ccc(-c3nc4ccccc4[nH]3)cc2)c([N+](=O)[O-])c1	> 100 µM	> 100 µM	> 100 µM	38 µM	> 100 µM	> 100 µM	> 100 µM	> 100 µM						> 100 µM		> 100 µM				
CCN(CC)CCCC(C)Nc1c2ccc(Cl)cc2nc2cc(Cl)ccc12 (stereo not drawn)	10.7 µM	9.64 µM	13.4 µM	16.1 µM				8.87 µM						22.7 µM						
CC(C)C(=O)Nc1ccc(-c2nc(-c3cccc(OCCN4CCOCC4)c3)c(-c3ccnc(Br)c3)[nH]2)cc1	7.01 µM	7.68 µM	> 100 µM	5.71 µM	17.3 µM	> 100 µM	14.5 µM	5.68 µM	2.82 µM	2.3 µM	2.32 µM	3.08 µM	0.647 µM	4.28 µM	2.68 µM	34.2 µM	2.37 µM	2.1 µM	6.23 µM	4.24 µM
CC(C)NC(=O)OCc1nnn2c1CCC2		> 100 µM	> 100 µM	> 100 µM				> 100 µM						> 100 µM						
COC1=CC(=O)c2c(c(COC(C)=O)cn2C)C1=O	0.22 µM	0.822 µM	0.395 µM	0.283 µM	0.0911 µM	0.295 µM	1.35 µM	1.43 µM						0.88 µM		3.67 µM				
Clc1ccc(OCc2nnc3sc(SSc4nn5c(COc6ccc(Cl)cc6)nnc5s4)nn23)cc1	> 100 µM	> 100 µM	80.4 µM	> 100 µM	> 100 µM	> 100 µM		> 100 µM	48.1 µM	77.3 µM	18.2 µM			> 100 µM		> 100 µM		44.7 µM		35.3 µM
CC[C@@]1(O)C(=O)OCc2c1cc1n(c2=O)Cc2cc3c(CN(C)C)c(O)ccc3nc2-1			1.37 µM and 7.71 µM and 2.12 µM			3.22 µM and 19.7 µM and 4.78 µM	> 90.1 µM and 14.8 µM and 35 µM			< 0.01 µM and 0.00506 µM		0.0425 µM and 0.26 µM			< 0.0117 µM and 0.0189 µM and 0.0186 µM		0.106 µM and 0.0677 µM and 0.297 µM		0.0737 µM and 0.355 µM and 0.105 µM	0.107 µM and 0.124 µM and 0.551 µM
CC1(CO)C(O)CCC2(C)C1C(O)CC1CC3CC12CCC3(O)CO (stereo not drawn)	> 225 µM	> 225 µM	> 225 µM	> 225 µM		> 225 µM		> 225 µM						> 225 µM						
CC(C(=O)NCCNC(=O)CCCC(=O)N(C)O)C(=O)NCCNC(=O)CCCC(=O)N(C)O	> 100 µM	> 100 µM	> 100 µM	> 100 µM		> 100 µM	> 100 µM	> 100 µM						> 100 µM		> 100 µM				
Fc1ccc(Nc2ncc(-c3cc(F)c(Cl)cc3Cl)s2)cc1Cl	22 µM	13.3 µM	23.9 µM	26.5 µM	45.1 µM	32.5 µM	27.7 µM	29.2 µM	20.2 µM	8.2 µM	1.47 µM	14 µM	39.3 µM	> 100 µM	> 100 µM	> 100 µM	14.3 µM	8.41 µM	17.7 µM	10.5 µM
COc1cc(/C=N/N=C(\N)NO)ccc1O	> 100 µM	> 100 µM		> 100 µM				> 100 µM												
CN(CC(=O)O)CC(=O)O	> 100 µM	> 100 µM	> 100 µM	> 100 µM	> 100 µM	> 100 µM	> 100 µM	> 100 µM						> 100 µM		> 100 µM				
OCC(O)C(O)C(O)C(O)CNCCO/N=C1/C(c2c(O)[nH]c3ccccc23)=Nc2ccccc21 (stereo not drawn)	> 50 µM	26.9 µM	26.3 µM	17.5 µM	41.7 µM	> 50 µM	30.8 µM	37.9 µM						24.5 µM		22.5 µM				
Fc1cc(C2=Nn3c(CNc4ccc(Cl)cc4)nnc3S/C2=C\c2ccc(-c3ccc(Cl)cc3)o2)c(Cl)cc1Cl	72.4 µM		> 100 µM	55.8 µM	> 100 µM	27.5 µM	51 µM	> 100 µM								> 100 µM				
CNCCCn1c2c(c3ccc(Cl)cc3c1=O)C(=O)c1cc(OC)cnc1-2	1.78 µM	2.75 µM	2.78 µM		2.07 µM	2.91 µM	2.33 µM	11.1 µM	0.645 µM	0.0631 µM	1.19 µM	1.02 µM	0.263 µM	1.78 µM			2.24 µM		0.536 µM	1.41 µM
O=S(=O)(Nc1nccs1)c1ccc([As](=O)(O)O)cc1	> 100 µM	> 100 µM	> 100 µM	> 100 µM	> 100 µM	> 100 µM	> 100 µM							> 100 µM		> 100 µM				
O=c1ccc2c(Cl)cccc2o1	> 100 µM	> 100 µM	> 100 µM	> 100 µM	> 100 µM	> 100 µM	> 100 µM	> 100 µM						> 100 µM		> 100 µM				
COc1ccc(N2C(=O)C(=O)N(C)C2=O)c2ccccc12	> 10 µM		> 10 µM	> 10 µM		> 10 µM	> 10 µM							> 10 µM		> 10 µM				
CSC1=C(SC)C(=O)c2cn(C)c(=O)cc2C1=O		2.12 µM	3.54 µM	7.21 µM	3.71 µM	> 100 µM	26.2 µM	7.05 µM						22.5 µM		3.99 µM				
O=[N+]([O-])c1ccc(Cc2nc3cc4ccccc4cc3[nH]2)cc1C(F)(F)F	26.7 µM	41.1 µM	26 µM		43 µM	23.9 µM	> 100 µM	29.5 µM						37.3 µM		21.6 µM				
OC(c1ccccc1)C1CC2C=CC1C2 (stereo not drawn)	> 100 µM	> 100 µM	> 100 µM	> 100 µM				> 100 µM						> 100 µM						
